Laboratory results as given in PMC5761210 (Journal of Pharmaceutical Analysis, 2014).
Like-named read-outs stand apart in the source and are kept apart here.

Legend:
[1] = type: in vitro ADME, human; conditions: for Qmax,24 h (maximal absorption: receptor fluid + epidermis + dermis after 24 h): percentage of the applied dose
[2] = no reference given; cited from earlier work
Salmonella typhimurium = conditions: cited from earlier work
[3] = EFSA report; cited from earlier work
[4] = vehicle 50% Glycerol, mean±RSD (%)

CC(=O)CO [acetol, 1-hydroxypropan-2-one]
dose applied cumulatively found in the receptor chamber ([1]; after 24 h, over the investigated vehicles): 1.3–10.0%
Dm (diffusion coefficient) ([1]; vehicle 50% EtOH, mean±RSD (%)): 1.49±41.8 10^−4 cm^2/h
Kp (permeability coefficient) ([1]; vehicle 50% EtOH, mean±RSD (%)): 3.91±45.1 10^−3 cm/h
Lag time ([1]; vehicle 50% EtOH, mean±RSD (%)): 2.14 ± 51.8 h
Qmax,24 h (maximal absorption: receptor fluid + epidermis + dermis after 24 h) ([1]; vehicle 50% EtOH, mean±RSD (%)): 7.28±29.0%
Dm (diffusion coefficient) [1, 4]: 0.73±22.4 10^−4 cm^2/h
Kp (permeability coefficient) [1, 4]: 0.78±40.3 10^−3 cm/h
Lag time [1, 4]: 4.39 ± 28.7 h
Qmax,24 h (maximal absorption: receptor fluid + epidermis + dermis after 24 h) [1, 4]: 1.75±39.0%
Dm (diffusion coefficient) ([1]; vehicle 50% PG, mean±RSD (%)): 1.07±103.0 10^−4 cm^2/h
Kp (permeability coefficient) ([1]; vehicle 50% PG, mean±RSD (%)): 1.30±79.0 10^−3 cm/h
Lag time ([1]; vehicle 50% PG, mean±RSD (%)): 5.65 ± 70.9 h
Qmax,24 h (maximal absorption: receptor fluid + epidermis + dermis after 24 h) ([1]; vehicle 50% PG, mean±RSD (%)): 2.94±76.0%
Jss (steady-state flux) ([1]; vehicle H2O (pure water), 5% acetol (m/V), 500 µL infinite dose, mean±RSD (%)): 68.3±21.2 µg/cm^2/h
Dm (diffusion coefficient) ([1]; vehicle H2O, mean±RSD (%)): 1.28±49.6 10^−4 cm^2/h
Kp (permeability coefficient) ([1]; vehicle H2O, mean±RSD (%)): 1.30±21.2 10^−3 cm/h
Lag time ([1]; vehicle H2O, mean±RSD (%)): 2.95 ± 71.0 h
Qmax,24 h (maximal absorption: receptor fluid + epidermis + dermis after 24 h) ([1]; vehicle H2O, mean±RSD (%)): 3.37±11.7%
Kp (permeability coefficient) ([1]; vehicle PG (propylene glycol/water 50/50, V/V)): 0.0013 cm/h
Kp (permeability coefficient) ([1]; vehicle glycerol (glycerol/water 50/50, V/V)): 0.000778 cm/h
Kp (permeability coefficient) ([1]; vehicle water): 0.0013 cm/h
log Pow [2]: −0.78
Ames tests (in-vitro mutagenic properties) (Salmonella typhimurium): positive
genotoxic in-vivo [3]: not likely
